Legend:
[1] = Maximum tolerated dose of topotecan in the MOLT-4 model (Piedmont Research Center); conditions: SCID, mouse, in vivo; MOLT-4 cell line model
Protocol: The dose level of 12 mg/kg topotecan was determined as maximum tolerated dose in the MOLT-4 cell line by Piedmont Research Center. Since maximal biologic effect can occur at a dose much lower than the MTD, we had included ½ the maximum tolerated (½MTD=6 mg/kg) (see Marx, G M et al., Journal of Clin One 2002; 20(6): 1446-1448).

[2] = test system: neovascularization of the cornea; assay: Mouse corneal micropocket angiogenesis assay (VEGF pellet); type: in vivo, C57BL/6 mice
Protocol: Fifty-five Charles River (Wilmington, N.C.) female C57BL/6 mice were available for the study. […] On Day 1 (Oct. 9, 2007) the Hydron pellets were implanted into corneal pocket cut in one eye of mice; pellets containing 200 ng/animal VEGF were implanted in Groups 2-6. Mice were anesthetized with 90 mg/kg pentobarbital, IP, immediately prior to implantation surgery; pellet implantation was performed according to Piedmont SOP which the test facility described as an adaptation of the method described by Kenyon et al (B M Kenyon, E E Voest, C C Chen, E Flynn, J Folkman, R J D'Amato, 1996, A model of angiogenesis in the mouse cornea, Investigative Opthalmology & Visual Science, Vol 37 No 8, 1625-1632). […]
Body weights were taken every day throughout the study. […] The vessel length of the longest blood vessel to have grown upward from the limbus was measured (VL) as was the circumference of vessel growth or clock hour (CH). The area of neovascularization was calculated using the formula: Area (mm^2)=πVL×CH×0.2. In addition to reporting the vessel length, clock hour, and calculated area of neovascularization, the percent neovascularization compared to the VEGF-treated negative control (Group 2) was reported. statistical significance by Kruskal-Wallis-Dunn with comparison to Group 2 and mean body weight nadir (the lowest group mean body weight, as a percent change from Day 1. […]

Row | Compound | MTD [1] | Percent neovascularization ([2]; 10 mg/kg IP, qd x 6 from Day 2) | Changes in body weight vs untreated group ([2]; mouse, in vivo)
1 | CC[C@@]1(O)C(=O)OCc2c1cc1n(c2=O)Cc2cc3c(CN(C)C)c(O)ccc3nc2-1 [topotecan] | 12 mg/kg | – | –
2 | bevacizumab: bevacizumab (Avastin, Genentech), an anti-VEGF monoclonal antibody | – | 0% | no significant changes

Reference: patent publication US8269009B2, “Methods and compositions for treating liquid tumors” (Elan Pharmaceuticals, Inc., priority 2007, dated 2012)
